Experimental findings from patent US12486283B2, “Crystalline salt of eribulin” (priority 2020, dated 2025) are described below.

Entries after “also recorded” stand apart in the source; their conditions may differ. Counter-ions that a name gives are not always drawn.

What all share (format): physicochemical
A short description of data set [1]: Stability test: properties (appearance) and X-ray powder diffraction analysis after storage. The note with it: 40±2° C., 75±5% RH. The protocol: Diffraction patterns were obtained in the range of 3 to 40° 2θ using a X-ray powder diffractometer, and the X-ray powder diffraction analysis conditions were as follows. • Instrument: BrukerA26X1 D2 Phaser • Time per step: 0.5 s • Scanning method: Continuous PSD fast • Detector: Lynxeye (1D mode) (2) Differential Scanning Calorimetry (DSC)
(§1) After 2 weeks and 4 weeks of storage, the occurrence and increase of related substances in each sample were evaluated by high-performance liquid chromatography, and changes were confirmed by X-ray powder diffraction analysis and differential scanning calorimetry to evaluate stability.

A short description of data set [2]: Hygroscopicity test by dynamic vapor adsorption and desorption (DVS). The note with it: for hygroscopicity compared with amorphous eribulin mesylate: 25° C. and 80% RH; for stability to moisture compared with amorphous eribulin mesylate: DVS hygroscopicity test; for crystalline form after the hygroscopicity test: after the test was completed. The protocol:
Eribulin edisylate obtained in Examples 2, 5, and 7 and the amorphous eribulin mesylate, which is the active component of commercially available Halaven, were subjected to hygroscopicity test by repeating moisture adsorption and desorption once at an interval of 5% RH in an isothermal condition of 25° C. and a relative humidity of 2 to 98% using dynamic vapor adsorption and desorption (DVS) (dynamic vapor adsorption, VTI SGA-100, TA Instruments).

Data set [3] can be described thus: Stability test: purity / related substances by high-performance liquid chromatography after storage. The note with it: 75±5% RH; for purity by high-performance liquid chromatography: stored sealed in amber vial at 40±2° C. The procedure:
as §1

Consider `C=C1C[C@@H]2CC[C@@]34C[C@H]5O[C@@H]6C(O[C@H]7CC[C@H](CC(=O)C[C@@H]8[C@@H](OC)[C@@H](C[C@H](O)CN)O[C@H]8C[C@H]8O[C@@H](CC[C@@H]1O2)C[C@@H](C)C8=C)O[C@@H]7[C@@H]6O3)[C@H]5O4` [Example 2, Eribulin Edisylate Ammonium Salt], for which the “X-ray powder diffraction analysis result (solid form)” value is “crystalline” in data set [1] (time 0 week), “maintain” in data set [1] (time 2 weeks) and “maintain” in data set [1] (time 4 weeks). For the same compound, in data set [1] (whole stability test period (4 weeks)), the change in properties entry is “No change in properties”. Further, in data set [2], the “hygroscopicity compared with amorphous eribulin mesylate” value is given as “lower hygroscopicity”. Moreover, the “stability to moisture compared with amorphous eribulin mesylate” value in data set [2] (25° C.) is “superior stability to moisture”. Also, the “crystalline form after the hygroscopicity test” value (from here on “crystalline form”) in data set [2] (DVS, 25° C., 2 to 98% RH) is reported as “initial crystalline form was maintained”. The “Hygroscopicity (EP standard (25° C., 80% RH))” value in data set [2] (DVS, 25° C.) is given as 5.4%. Moreover, the “decrease in purity (increase in related substances)” value in data set [3] (40±2° C., during 4 weeks) is reported as not above 0.5%. For the same compound, in data set [3] (40±2° C., up to 4 weeks, Ammonium Salt), the “stability to heat and humidity compared with eribulin mesylate” value was “excellent stability to heat and humidity; also recorded: more stable to heat and humidity”. Moreover, the “purity by high-performance liquid chromatography” value in data set [3] (time 0 week) was 99.73%; in data set [3] (time 2 weeks), 99.50%; in data set [3] (time 4 weeks), 99.35%.

As to “Eribulin Edisylate Dicyclohexylamine Salt [Example 7]”, the “hygroscopicity compared with amorphous eribulin mesylate” value in data set [2] was “lower hygroscopicity”. Also, the “stability to moisture compared with amorphous eribulin mesylate” value in data set [2] (25° C.) is “superior stability to moisture”. The “crystalline form” value in data set [2] (DVS, 25° C., 2 to 98% RH) is recorded as “initial crystalline form was maintained”. The “Hygroscopicity (EP standard (25° C., 80% RH))” value in data set [2] (DVS, 25° C.) stood at 5.6%.

As to “Eribulin Edisylate Cyclohexylamine Salt [Example 5]”, in data set [2], the “hygroscopicity compared with amorphous eribulin mesylate” value is recorded as “lower hygroscopicity”. Moreover, in data set [2] (25° C.), the “stability to moisture compared with amorphous eribulin mesylate” value was “superior stability to moisture”. The “crystalline form” value in data set [2] (DVS, 25° C., 2 to 98% RH) is reported as “initial crystalline form was maintained”. For the same compound, in data set [2] (DVS, 25° C.), the “Hygroscopicity (EP standard (25° C., 80% RH))” value was found to be 5.2%.

On to `C=C1C[C@@H]2CC[C@@]34C[C@H]5O[C@H]6[C@@H](O3)[C@H]3O[C@H](CC[C@@H]3O[C@H]6[C@H]5O4)CC(=O)C[C@@H]3[C@@H](OC)[C@@H](C[C@H](O)CN)O[C@H]3C[C@H]3O[C@@H](CC[C@@H]1O2)C[C@@H](C)C3=C.CS(=O)(=O)O` [Eribulin mesylate], for which the change in properties entry was “the solid deliquesced and the color changed to yellow” in data set [1] (2nd week); “the deliquescent state was maintained and the color changed from yellow to brown” in data set [1] (4th week). Moreover, the “solid state over time in the stability test” value in data set [1] (over time) is “deliquescence was observed”. Also, the “X-ray powder diffraction analysis result (solid form)” value is reported as “amorphous” in data set [1] (time 0 week); “amorphous solid” in data set [1] (time 0 week, listed as eribulin mesylate); “deliquescence” in data set [1] (time 2 weeks); “deliquescence” in data set [1] (time 4 weeks). In addition, in data set [2] (DVS, 25° C., 2 to 98% RH), the “deliquescence during the hygroscopicity test” value was “deliquescence was observed”. Further, the “purity by high-performance liquid chromatography” value in data set [3] (time 0 week) was 99.66%; in data set [3] (time 2 weeks) it was 88.00%; in data set [3] (time 4 weeks), 7.30%; in data set [3] (time 4 weeks, listed as eribulin mesylate), 7%.
